Data: EP0406111A1, “Substituted arylamines and heteroarylamines, process for their preparation and pharmaceutical composition containing them” (SOCIETE DE CONSEILS DE […] D'APPLICATIONS SCIENTIFIQUES …, priority 1989, dated 1991)

What was measured:
[1] = test system: fixation de la (³H)BTCP dans le striatum de souris; experiment: Inhibition of in vivo (3H)BTCP binding in mouse striatum (Example 40); details: mice, compound s.c. 60 min before i.v. (3H)BTCP, sacrifice 30 min later
Description: Exemple 40 : Etude de l'inhibition de la fixation "in vivo" de (³H)BTCP chez la souris.
Pour cette étude, on utilise des souris Swiss mâles pesant 20 à 25g. Les souris sont réparties par groupes et alimentées avec de la nourriture standard de laboratoire et de l'eau à volonté, en réalisant des cycles de lumière artificielle de 12h consécutives à partir de 7h du matin. Les expériences sont effectuées entre 10h et 18h. Les mesures de la fixation "in vivo" de la (³H)BTCP sont effectuées comme il a été décrit par Maurice et al, 1989, de la façon suivante.
On injecte aux souris par voie sous-cutanée le composé à tester dans 100µl de solution physiologique pour les composés n^o 4 et n^o 16 et dans 100µl d'un mélange 1:1 en volume de solution physiologique et de DMSO pour le composé n^o 26. 60 min après cette injection on leur injecte dans une veine de la queue (³H)BTCP à une dose de 5µCi dans 100µl d'un mélange de solution physiologique et d'éthanol à 5%. 30min après cette injection, on sacrifie les souris. Les striata de cerveaux sont rapidement disséqués et homogénéisés avec un ultra turrax (IKA Verk) réglage maximum pendant 20s dans 80 volumes d'un tampon Na₂HPO₄, HCl 50mM, pH=7,4 à 4°C. Deux aliquots de […] sont filtrées sous pression réduite sur des filtres GF/B (Whatman) prétraités par de la polyéthylène imine à 0,5% (Aldrich). On rince ensuite les filtres deux fois avec 5ml d'un tampon NaCl 50mM, tris-HCl 10mM, pH=7,4 à 4°C. La radioactivité fixée qui reste sur les filtres, et la radioactivité totale, obtenue à partir des deux aliquots de 200µl d'homogénats sont mesurées dans des flacons de 6ml contenant 3,5ml de ACS (Amersham) avec un spectrophotomètre à scintillation liquide Excel 1410 (LKB). La fixation non spécifique est définie comme la radioactivité présente dans chaque région après prétraitement des animaux avec de la BTCP (40mg/kg dans 100µl de solution saline), injectée par voie sous-cutanée, 60min avant l'injection de (³H)BTCP. Les résultats sont exprimés sous la forme des rapports radioactivité fixée / radioactivité libre (B/F) dans lesquels le taux de (³H)BTCP libre est estimé en soustrayant la radioactivité fixée de la radioactivité totale.

récepteur de la PCP = experiment: Competition binding at the (3H)TCP sites on rat brain homogenates (Example 36); details: 1 nM (3H)TCP, 30 min at 25°C
From the text: Exemple 36 : Affinité des composés pour les sites de liaison de la (³H)TCP sur les homogénats de cerveaux de rats.
Dans cet essai on mesure les affinités des composés pour le récepteur de la PCP par des expériences de compétition sur des homogénats de cerveaux de rats. Le ligand radioactif utilisé est la (³H)TCP à une activité spécifique de 62 Ci/mmol (Service des Molécules Marquées, CEA Saclay France).
Les cerveaux de rats (sans le cervelet et le tronc cérébral) sont homogénéisés à l'ultra turax dans 20 volumes de tampon Hepes-Tris 50 mM, pH 7,7. Après centrifugation pendant 30 min à 15000 g le culot est repris dans le même volume de tampon et recentrifugé dans les mêmes conditions. Le culot final est repris dans du tampon Hepes-Tris 50 mM, pH 7,7 de façon à obtenir une concentration en protéine de 6 à 8 mg/ml.
Les expériences de compétition sont réalisées en incubant pendant 30 min les membranes (concentration finale en protéine : 0,6 à 0,8 mg/ml) en milieu tampon 5 mM Hepes-Tris, pH 7,7 à 25°C, en présence d'une concentration fixe de ligand tritié (1 nM)et de concentrations croissantes de composés à tester. Trois échantillons de 600 µL sont ensuite filtrés sur filtres de fibres de verre GF/B prétraités par du PEI (polyéthylénimine) à 0,1%. Les filtres sont rincés avec 3x5ml de tampon Tris-HCl 10 mM, NaCl 100 mM et la radioactivité retenue est mesurée dans un compteur à scintillation liquide. La liaison non spécifique est obtenue en présence de TCP […].

[2] = Toxicity test in mice, 100 mg/kg intraperitoneal; parameters: species or system souris; details: mouse, in vivo, ip, 100 mg/kg i.p., read-out: Toxicité à 100 mg/kg i.p. % mortalité à 48 h
Description: Le tableau 6 annexé illustre les résultats d'essais de toxicité effectués chez la souris sur les amines substituées de l'invention à une dose de 100mg/kg par voie intrapéritonéale.

Row | SMILES | ID₅₀ (mg/kg) [1] | IC50 (récepteur de la PCP) [µM] | mortality at 48 h [2] [%]
1 | OC1CCN(C2(c3cc4ccccc4s3)CCCCC2)CC1 [composé 26, (benzo(b)thiophényl-2)-1( (ol-4-pipéridino)-1)-1 cyclohexane] | 0,56 mg/kg | 31.9 | –
2 | BrCC1CCCN(C2(c3cc4ccccc4s3)CCCCC2)C1 (centres unmarked) [composé n^o 10, (benzo(b)thiophényl-2)-1 ((bromométhyl-3 pipéridino)-1)-1 cyclohexane] | – | > 100 | 0
3 | CC1CCCN(C2(c3cc4ccccc4s3)CCCCC2)C1 (centres unmarked) [composé n^o 2, (benzo(b)thiophényl-2)-1 ((méthyl-3 pipéridino)-1)-1 cyclohexane] | – | 52 | 10
4 | c1ccc2oc(C3(N4CCCCC4)CCCCC3)cc2c1 [composé n^o 4, (benzo(b)furannyl-2)-1 (pipéridino-1)-1 cyclohexane] | 7,78 mg/kg | 40 | 10
5 | C[C@H]1CC[C@@](c2cc3ccccc3s2)(N2CCCCC2)CC1 [composé n^o 21, (benzo(b)thiophényl-2)-1 c-méthyl-4-r-(pipéridino-1)-1 cyclohexane] | – | > 100 | 0
6 | C[C@H]1CC[C@](c2cc3ccccc3s2)(N2CCCCC2)CC1 [composé n^o 20, (benzo(b)thiophényl-2)-1-t-méthyl-4-r-(pipéridino-1)-1 cyclohexane] | – | 112 | 0
7 | CCCN(CCC)C1(c2cc3ccccc3s2)CCCCC1 [composé no 3, (benzo(b)thiophényl-2)-1 (dipropylamino-1)-1 cyclohexane] | – | 424 | 0
8 | CC1CC(C)CN(C2(c3cc4ccccc4s3)CCCCC2)C1 (centres unmarked) [composé n^o 6, (benzo(b)thiophényl-2)-1 ((diméthyl-3,5 pipéridino)-1)-1 cyclohexane] | – | > 100 | 10
9 | c1ccc2sc(C3(N4CCCCC4)CCCCC3)cc2c1 [BTCP, (benzo(b)thiophényl-2)-1 (pipéridino -1) cyclohexane, reference compound] | 4,98 mg/kg | 20 | 0
